Reference: US8829027B2, “Urea derivatives of substituted nortropanes, medicaments containing such compounds and their use” (Boehringer Ingelheim International GmbH, priority 2008, dated 2014)

Target: T1, 11β-HSD1 (Homo sapiens, UniProt P28845)
T1 construct: detecting cortisol generated from cortisterone by human liver microsomes; from tissue; host or cells: human liver microsomes
Test: In vitro inhibition of 11β-HSD1, HTRF detection of cortisol generated from cortisone by human liver microsomes
Assay type: biochemical
Settings: compound concentration 1 μM, 100% indicates no inhibition, zero or below zero indicates complete inhibition
Protocol: Briefly, compounds are incubated for 1 hour at 37° C. in Tris buffer (20 mM tris, 5 mM EDTA, pH 6.0) containing NADPH (200 μM) and cortisone (80 nM). Cortisol generated in the reaction is then detected with a competitive immunoassay, involving two HTRF conjugates: cortisol linked to XL665 and anti-cortisol antibody labeled with Europium cryptate. The incubation period for detection reaction is typically 2 hours. The amount of cortisol is determined by reading the time-resolved fluorescence of the wells (Ex 320/75 nm; Em 615/8.5 nm and 665/7.5 nm). The ratio of the two emission signals is then calculated (Em665*10000/Em615). […] Each assay also contains a calibration curve with cortisol to transform the fluorescent data into cortisol concentrations. Percent inhibition (% CTL) of each compound is determined relative to the carbenoxolone signal and IC50 curves are generated.
The % CTL values of some example compounds at a concentration of 1 μM are provided in the following Table 2 wherein 100% indicates no inhibition and a value of zero or below zero indicates complete inhibition. The measurement of % CTL is described hereinbefore.

T1 sequence (P28845 whole entry): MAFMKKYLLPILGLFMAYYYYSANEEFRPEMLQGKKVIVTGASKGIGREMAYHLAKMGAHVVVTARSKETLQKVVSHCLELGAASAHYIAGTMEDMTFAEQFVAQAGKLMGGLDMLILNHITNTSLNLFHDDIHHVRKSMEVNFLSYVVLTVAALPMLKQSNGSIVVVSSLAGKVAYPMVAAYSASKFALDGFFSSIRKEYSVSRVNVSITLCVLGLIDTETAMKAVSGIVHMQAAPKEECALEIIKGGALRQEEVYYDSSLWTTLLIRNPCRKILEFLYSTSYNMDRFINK

Row | SMILES | 11β-HSD1 remaining activity (% of control) [% CTL]
1 | O=C(N1CCCCC1)N1[C@@H]2CC[C@H]1C[C@@H](c1ccc(F)cc1)C2 [Example 1, endo-[3-(4-Fluoro-phenyl)-8-aza-bicyclo[3.2.1]oct-8-yl]-piperidin-1-yl-methanone] | −49
2 | O=C(N1CCCC1)N1[C@@H]2CC[C@H]1C[C@@H](c1ccc(F)cc1)C2 [Example 2, endo-[3-(4-Fluoro-phenyl)-8-aza-bicyclo[3.2.1]oct-8-yl]-pyrrolidin-1-yl-methanone] | −3
3 | O=C(N1CCOCC1)N1[C@@H]2CC[C@H]1C[C@@H](c1ccc(F)cc1)C2 [Example 3, endo-[3-(4-Fluoro-phenyl)-8-aza-bicyclo[3.2.1]oct-8-yl]-morpholin-4-yl-methanone] | −29
4 | CC(=O)NC1CCN(C(=O)N2[C@@H]3CC[C@H]2C[C@@H](c2ccc(F)cc2)C3)CC1 [Example 4, endo-N-{1-[3-(4-Fluoro-phenyl)-8-aza-bicyclo[3.2.1]octane-8-carbonyl]-piperidin-4-yl}-acetamide] | 46
5 | O=C(N1CCC(O)CC1)N1[C@@H]2CC[C@H]1C[C@@H](c1ccc(F)cc1)C2 [Example 5, endo-[3-(4-Fluoro-phenyl)-8-aza-bicyclo[3.2.1]oct-8-yl]-(4-hydroxy-piperidin-1-yl)-methanone] | −46
6 | O=C(N1CCc2nc[nH]c2C1)N1[C@@H]2CC[C@H]1C[C@@H](c1ccc(F)cc1)C2 [Example 6, endo-[3-(4-Fluoro-phenyl)-8-aza-bicyclo[3.2.1]oct-8-yl]-(3,4,6,7-tetrahydro-imidazo[4,5-c]pyridin-5-yl)-methanone] | 65
7 | O=C(N1CCc2sccc2C1)N1[C@@H]2CC[C@H]1C[C@@H](c1ccc(F)cc1)C2 [Example 7, endo-(6,7-Dihydro-4H-thieno[3,2-c]pyridin-5-yl)-[3-(4-fluoro-phenyl)-8-aza-bicyclo[3.2.1]oct-8-yl]-methanone] | −57
8 | O=C(N1[C@@H]2CC[C@H]1C[C@@H](O)C2)N1[C@@H]2CC[C@H]1C[C@@H](c1ccc(F)cc1)C2 [Example 8, [endo-3-(4-Fluoro-phenyl)-8-aza-bicyclo[3.2.1]oct-8-yl]-(endo-3-hydroxy-8-aza-bicyclo[3.2.1]oct-8-yl)-methanone] | −59
9 | NC(=O)C1CCN(C(=O)N2[C@@H]3CC[C@H]2C[C@@H](c2ccc(F)cc2)C3)CC1 [Example 9, endo-1-[3-(4-Fluoro-phenyl)-8-aza-bicyclo[3.2.1]octane-8-carbonyl]-piperidine-4-carboxylic acid amide] | −49
10 | O=C(O)C1CCN(C(=O)N2[C@@H]3CC[C@H]2C[C@@H](c2ccc(F)cc2)C3)CC1 [Example 11, endo-1-[3-(4-Fluoro-phenyl)-8-aza-bicyclo[3.2.1]octane-8-carbonyl]-piperidine-4-carboxylic acid] | 4
11 | N#CC1CCN(C(=O)N2[C@@H]3CC[C@H]2C[C@@H](c2ccc(F)cc2)C3)CC1 [Example 12, endo-1-[3-(4-Fluoro-phenyl)-8-aza-bicyclo[3.2.1]octane-8-carbonyl]-piperidine-4-carbonitrile] | −27
12 | COC1CCN(C(=O)N2[C@@H]3CC[C@H]2C[C@@H](c2ccc(F)cc2)C3)CC1 [Example 13, endo-[3-(4-Fluoro-phenyl)-8-aza-bicyclo[3.2.1]oct-8-yl]-(4-methoxy-piperidin-1-yl)-methanone] | −25
13 | O=C(N1CCC(O)(C(F)(F)F)CC1)N1[C@@H]2CC[C@H]1C[C@@H](c1ccc(F)cc1)C2 [Example 14, endo-[3-(4-Fluoro-phenyl)-8-aza-bicyclo[3.2.1]oct-8-yl]-(4-hydroxy-4-trifluoromethyl-piperidin-1-yl)-methanone] | −30
14 | COC(=O)C1CCN(C(=O)N2[C@@H]3CC[C@H]2C[C@@H](c2ccc(F)cc2)C3)CC1 [Example 15, endo-1-[3-(4-Fluoro-phenyl)-8-aza-bicyclo[3.2.1]octane-8-carbonyl]-piperidine-4-carboxylic acid methyl ester] | 20
15 | CC1(O)CCN(C(=O)N2[C@@H]3CC[C@H]2C[C@@H](c2ccc(F)cc2)C3)CC1 [Example 16, endo-[3-(4-Fluoro-phenyl)-8-aza-bicyclo[3.2.1]oct-8-yl]-(4-hydroxy-4-methyl-piperidin-1-yl)-methanone] | −23
16 | O=C(N1C2CCC1CC(O)(C(F)(F)F)C2)N1[C@@H]2CC[C@H]1C[C@@H](c1ccc(F)cc1)C2 (stereo partly drawn) [Example 17, endo-[3-(4-Fluoro-phenyl)-8-aza-bicyclo[3.2.1]oct-8-yl]-(3-hydroxy-3-trifluoromethyl-8-aza-bicyclo[3.2.1]oct-8-yl)-methanone] | −11
17 | O=C(N1CCCC2(CCCNC2=O)C1)N1[C@@H]2CC[C@H]1C[C@@H](c1ccc(F)cc1)C2 (stereo partly drawn) [Example 18, endo-8-[3-(4-Fluoro-phenyl)-8-aza-bicyclo[3.2.1]octane-8-carbonyl]-2,8-diaza-spiro[5.5]undecan-1-one] | 62
18 | O=C(N1CCCC2(CCNC2=O)C1)N1[C@@H]2CC[C@H]1C[C@@H](c1ccc(F)cc1)C2 (stereo partly drawn) [Example 19, endo-7-[3-(4-Fluoro-phenyl)-8-aza-bicyclo[3.2.1]octane-8-carbonyl]-2,7-diaza-spiro[4.5]decan-1-one] | 34
19 | O=C(N1CCCC(CO)C1)N1[C@@H]2CC[C@H]1C[C@@H](c1ccc(F)cc1)C2 (stereo partly drawn) [Example 20, endo-[3-(4-Fluoro-phenyl)-8-aza-bicyclo[3.2.1]oct-8-yl]-(3-hydroxymethyl-piperidin-1-yl)-methanone] | −17
20 | O=C(N1CCC(CO)CC1)N1[C@@H]2CC[C@H]1C[C@@H](c1ccc(F)cc1)C2 [Example 21, endo-[3-(4-Fluoro-phenyl)-8-aza-bicyclo[3.2.1]oct-8-yl]-(4-hydroxymethyl-piperidin-1-yl)-methanone] | −20
21 | CC(C)(O)C1CCN(C(=O)N2[C@@H]3CC[C@H]2C[C@@H](c2ccc(F)cc2)C3)CC1 [Example 22, endo-[3-(4-Fluoro-phenyl)-8-aza-bicyclo[3.2.1]oct-8-yl]-[4-(1-hydroxy-1-methyl-ethyl)-piperidin-1-yl]-methanone] | −18
